Measurements: the C3SDB collision cross section collection

Experiments:
[1] = [M+H]+; instrument: TW
[2] = instrument: DT, single field, calibrated with Agilent tune mix (Agilent)
[3] = instrument: TW, calibrated with phosphatidylcholines (ESI+) and phosphatidylethanolamines (ESI-)
[4] = instrument: DT, stepped-field

SMILES | collision cross section (N2) [1] [Å²] | also measured
C[C@]12C=CC3=C4CCC(=O)C=C4CC[C@H]3[C@@H]1CC[C@@H]2O [17B-Trenbolone] | 163.3 | 
C[C@]12CC[C@H]3[C@@H](CCC4=CC(=O)CC[C@H]43)[C@@H]1CC[C@H]2O [17a-Nortestosterone] | 165.7 | 
CC12C=CC3=C4CCC(=O)C=C4CCC3C1CCC2O (stereo unspecified) [17a-Trenbolone] | 163.3 | 
CNC(=O)ON=CC(C)(C)S(C)=O (stereo unspecified) [Aldicarb sulfoxide] | 145.4 | 
CO/C=C(/C(=O)OC)c1ccccc1Oc1cc(Oc2ccccc2C#N)ncn1 [Azoxystrobin] | 195.75 | 
CC(C)(C)NCC(O)c1cc(Cl)c(N)c(Br)c1 (stereo unspecified) [Bromchlorbuterol] | 165.2 | 
C=CCOC(=O)C(C)(C)OC(=O)c1cc(-n2c(=O)cc(C(F)(F)F)n(C)c2=O)ccc1Cl [Butafenacil] | 208.59 | 
CC(C)NCC(O)COc1cccc2[nH]c3ccccc3c12 (stereo unspecified) [Carazolol] | 165.5 | 
COC(=O)Nc1nc2ccccc2[nH]1 [Carbendazim] | 134.94 | 
CON(C)C(=O)Nc1ccc(Br)c(Cl)c1 [Chlorbromuron] | 152.25 | 
COc1nc(C)nc(NC(=O)NS(=O)(=O)c2ccccc2Cl)n1 [Chlorsulfuron] | 175.29 | 
CC(C)NCC(O)c1ccc(N)c(C#N)c1 (stereo unspecified) [Cimaterol] | 155.4 | 
CCC(C)(C)NCC(O)c1cc(Cl)c(N)c(Cl)c1 (stereo unspecified) [Clenpenterol] | 165 | 
Clc1ccccc1-c1nnc(-c2ccccc2Cl)nn1 [Clofentezine] | 161.9 | 
Cc1cc(C2CC2)nc(Nc2ccccc2)n1 [Cyprodinil] | 152.07 | 
Nc1nc(N)nc(NC2CC2)n1 [Cyromazine] | 133.23 | 
Nc1ccc(S(=O)(=O)c2ccc(N)cc2)cc1 [Dapsone] | 149.9 | 
CCS(=O)(=O)CCSP(=O)(OC)OC [Demeton-S-methyl- sulfone] | 143.66 | 
CC(C)c1cc(Oc2ccccc2)cc(C(C)C)c1NC(=S)NC(C)(C)C [Diafenthiuron] | 199.75 | 
CC1COC(Cn2cncn2)(c2ccc(Oc3ccc(Cl)cc3)cc2Cl)O1 (stereo unspecified) [Difenoconazole] | 198.48 | 

SMILES | collision cross section (N2) [1] [Å²] | also measured
Cc1ncc([N+](=O)[O-])n1C [Dimetridazole] | 116.4 | 
C=C1C[C@@]23CC[C@H]4[C@@](C)(CCC[C@@]4(C)C(=O)O[C@@H]4O[C@H](CO)[C@@H](O)[C@H](O)[C@H]4O)[C@@H]2CC[C@]1(O[C@@H]1O[C@H](CO)[C@@H](O)[C@H](O)[C@H]1O[C@@H]1O[C@@H](C)[C@H](O)[C@@H](O)[C@H]1O)C3 [Dulcoside A] | 270.75 | 
CSC1=N[C@@](C)(c2ccccc2)C(=O)N1Nc1ccccc1 [Fenamidone] | 171.15 | 
CC1(C(=O)Nc2ccc(O)c(Cl)c2Cl)CCCCC1 [Fenhexamid] | 164.82 | 
CC(Cc1ccc(C(C)(C)C)cc1)CN1CCCCC1 (stereo unspecified) [Fenpropidin] | 166.39 | 
CCCCOC(=O)[C@@H](C)Oc1ccc(Oc2ccc(C(F)(F)F)cn2)cc1 [Fluazafop-P-butyl] | 194.8 | 
O=C(NC(=O)c1c(F)cccc1F)Nc1ccc(Oc2ccc(C(F)(F)F)cc2Cl)cc1F [Flufenoxuron] | 204.46 | 
CC1CCc2cc(F)cc3c(=O)c(C(=O)O)cn1c23 (stereo unspecified) [Flumequine] | 147.6 | 
C[C@@H]1C[C@H]2[C@@H]3C[C@H](F)C4=CC(=O)C=C[C@]4(C)[C@@]3(F)[C@@H](O)C[C@]2(C)[C@@]1(O)C(=O)CO [Flumethasone] | 193.2 | 
OC(Cn1cncn1)(c1ccc(F)cc1)c1ccccc1F (stereo unspecified) [Flutriafol] | 163.97 | 
CNC(=O)Oc1cccc(N=CN(C)C)c1 [Formetanate] | 153.76 | 
CCOCCOC(=O)C(C)Oc1ccc(Oc2ncc(C(F)(F)F)cc2Cl)cc1 (stereo unspecified) [Haloxyfop-2-ethoxyethyl] | 193.53 | 
O=C(NC(=O)c1c(F)cccc1F)Nc1cc(Cl)c(OC(F)(F)C(F)F)c(Cl)c1 [Hexaflumuron] | 188.22 | 
Oc1ccc2nc(-c3cscn3)[nH]c2c1 [Hydroxythiabendazole] | 137.2 | 
COC(=O)N(C(=O)N1CO[C@@]2(C(=O)OC)Cc3cc(Cl)ccc3C2=N1)c1ccc(OC(F)(F)F)cc1 [Indoxacarb] | 207.03 | 
CC(C)c1ccc(NC(=O)N(C)C)cc1 [Isoproturon] | 150.75 | 
CCC(C)(CC)c1cc(NC(=O)c2c(OC)cccc2OC)on1 [Isoxaben] | 184.93 | 
CC(C(=O)O)c1cccc(C(=O)c2ccccc2)c1 (stereo unspecified) [Ketoprofen] | 155.4 | 
CCC[C@@H]1C[C@@H](C(=O)N[C@@H]([C@H]2O[C@H](SC)[C@H](O)[C@@H](O)[C@H]2O)[C@@H](C)O)N(C)C1 [Lincomycin] | 201.8 | 
O=C(NC(=O)c1c(F)cccc1F)Nc1cc(Cl)c(OC(F)(F)C(F)C(F)(F)F)cc1Cl (stereo unspecified) [Lufenuron] | 198.53 | 

SMILES | collision cross section (N2) [1] [Å²] | also measured
CC(C)(C)NCC(O)c1cc(Cl)c(N)c(C(F)(F)F)c1 (stereo unspecified) [Mabuterol] | 168.4 | 
C#CCOc1ccc(CCNC(=O)C(OCC#C)c2ccc(Cl)cc2)cc1OC (stereo unspecified) [Mandipropamid] | 195.15 | 
Cc1cnc(/N=C(\O)C2=C(O)c3ccccc3S(=O)(=O)N2C)s1 [Meloxicam] | 174.9 | 
CC1(C)CCC(Cc2ccc(Cl)cc2)C1(O)Cn1cncn1 (stereo unspecified) [Metconazole] | 168.62 | 
CON(C)C(=O)Nc1ccc(Cl)cc1 [Monolinuron] | 142.9 | 
Cc1ccsc1/C=C/C1=NCCCN1C [Morantel] | 149.7 | 
CCn1cc(C(=O)O)c(=O)c2ccc(C)nc21 [Nalidixic acid] | 141.4 | 
CC(C)Oc1cc(-n2nc(C(C)(C)C)oc2=O)c(Cl)cc1Cl [Oxadiazon] | 182.17 | 
CCn1cc(C(=O)O)c(=O)c2cc3c(cc21)OCO3 [Oxolinic acid] | 147.8 | 
CN(C)[C@@H]1C(O)=C(C(N)=O)C(=O)[C@@]2(O)C(O)=C3C(=O)c4c(O)cccc4[C@@](C)(O)[C@H]3[C@H](O)[C@@H]12 [Oxytetracycline] | 202.3 | 
CCCCCCCCCC/C=C\CCCCCCCCCC(=O)O[C@H](COC(=O)CCCCCCCCCCCCC)COP(=O)(O)OCCN [PE(36:1)] |  | collision cross section (N2) ([2]; [M+H]+): 281.3 Å²; collision cross section (N2) ([2]; [M+Na]+): 287.5 Å²; collision cross section (N2) ([2]; [M-H]-): 269.9 Å²; collision cross section (N2) ([3]; [M+H]+): 278.7 Å²; collision cross section (N2) ([3]; [M-H]-): 268.8 Å²; collision cross section (N2) ([4]; [M+Na]+): 288.5 Å²
CCCCC/C=C\C/C=C\C/C=C\CCCCCCC(=O)O[C@H](COC(=O)CCCCCCC/C=C\CCCCCC)COP(=O)(O)OCCN [PE(36:4)] |  | collision cross section (N2) ([2]; [M+Na]+): 281.2 Å²; collision cross section (N2) ([2]; [M-H]-): 265.2 Å²; collision cross section (N2) ([3]; [M-H]-): 265.7 Å²; collision cross section (N2) ([4]; [M+Na]+): 280.6 Å²
CC/C=C\C/C=C\C/C=C\C/C=C\CCCCC(=O)OC[C@H](COP(=O)(O)OCCN)OC(=O)CCCCCCCCC/C=C\C/C=C\CCCCC [PE(38:6)] |  | collision cross section (N2) ([2]; [M+Na]+): 283.6 Å²; collision cross section (N2) ([2]; [M-H]-): 269.8 Å²; collision cross section (N2) ([3]; [M+H]+): 275.7 Å²; collision cross section (N2) ([3]; [M-H]-): 269.2 Å²; collision cross section (N2) ([4]; [M+K]+): 288.7 Å²; collision cross section (N2) ([4]; [M+Na]+): 285 Å²
CC/C=C\C/C=C\C/C=C\C/C=C\CCCCC(=O)OC[C@H](COP(=O)(O)OCCN)OC(=O)CCCCC/C=C\C/C=C\C/C=C\C/C=C\CCCCC [PE(40:8)] |  | collision cross section (N2) ([2]; [M+Na]+): 287.3 Å²; collision cross section (N2) ([3]; [M+H]+): 280.7 Å²; collision cross section (N2) ([4]; [M+Na]+): 289.2 Å²
CCCC/C=C\CCCCCCCC(=O)OC[C@H](COP(=O)(O)O[C@H]1C(O)C(O)C(O)[C@@H](O)C1O)OC(=O)CCCCCCCCC/C=C\CCCCCCCCCC (stereo partly specified) [PI(36:2)] |  | collision cross section (N2) ([2]; [M+H]+): 299.3 Å²; collision cross section (N2) ([2]; [M+Na]+): 297.6 Å²; collision cross section (N2) ([2]; [M-H]-): 289.3 Å²; collision cross section (N2) ([3]; [M+Na]+): 293.3 Å²; collision cross section (N2) ([3]; [M-H]-): 288.7 Å²
CC/C=C\C/C=C\C/C=C\C/C=C\CCCCC(=O)OC[C@H](COP(=O)(O)O[C@H]1C(O)C(O)C(O)[C@@H](O)C1O)OC(=O)CCCCCCCCC/C=C\CCCCCCCCCC (stereo partly specified) [PI(40:5)] |  | collision cross section (N2) ([2]; [M+H]+): 307.1 Å²; collision cross section (N2) ([2]; [M+NH4]+): 308.6 Å²; collision cross section (N2) ([2]; [M+Na]+): 305.8 Å²; collision cross section (N2) ([2]; [M-H]-): 297.7 Å²; collision cross section (N2) ([3]; [M+Na]+): 301.1 Å²; collision cross section (N2) ([3]; [M-H]-): 296.5 Å²
CC/C=C\C/C=C\C/C=C\C/C=C\C/C=C\C/C=C\CCC(=O)O[C@H](COC(=O)CCCCCCCCCCCCCCCCC)COP(=O)(O)O[C@H]1C(O)C(O)C(O)[C@@H](O)C1O (stereo partly specified) [PI(40:6)] |  | collision cross section (N2) ([2]; [M+NH4]+): 306.1 Å²; collision cross section (N2) ([2]; [M-H]-): 296.4 Å²; collision cross section (N2) ([3]; [M+Na]+): 299.8 Å²
CCC(NC(C)C)C(O)c1ccc(O)c2[nH]c(=O)ccc12 (stereo unspecified) [Procaterol] | 168 | 
CC(C)N(C(=O)CCl)c1ccccc1 [Propachlor] | 142.07 | 
CCC(=O)c1ccc2c(c1)N(CCCN(C)C)c1ccccc1S2 [Propionylpromazine] | 182.8 | 
